pEC50: −log10 of the molar value. Entries after “also recorded” stand apart in the source; their conditions may differ. Read-outs that look alike come from different tables or passages of the source.
Assays:
[1] = system: HCMV strain Merlin (R1111); assay: microbe, parasite or virus in culture; assay type: cell-based, human cytomegalovirus; settings: for anti-HCMV activity in HFFF cells relative to other cell lines: HFFF cells vs HFF and SGHPL-4 cells; for pEC50: read-out: 50% effective dose (EC50), anti-HCMV activity
[2] = system: HFF cells; settings: uninfected HFF cells, 96 h, high and low cell numbers
[3] = system: HFFF cells; settings: uninfected HFFF cells, 96 h, high and low cell numbers
[4] = system: SGHPL-4 cells; settings: uninfected SGHPL-4 cells, 96 h, high and low cell numbers, 0.5% FBS
[5] = 2,000 mg dose; calculated with ChatGPT3 as Cmax × 1,000/molecular weight from commonly used literature Cmax values; cited from earlier work
[6] = system: HCMV; set-up: method as in PMID 32919517; settings: high doses administered during pregnancy, clinical trial; cited from earlier work
[7] = 2,000 mg/6 h; cited from earlier work
[8] = system: HSV-1 strain 17+; assay: Virus yield assay, HSV in HFF cells; assay type: cell-based, herpes simplex virus; settings: HFF (adult fibroblast) cells, MOI 1, 48 h post-infection
[9] = system: HCMV; settings: previous studies; cited from earlier work
[10] = system: uninfected cell; set-up: method as in PMID 16492567; settings: cited from earlier work
[11] = HFF, HFFF and SGHPL-4 cells, MOI 1, 96 h
[12] = Human betaherpesvirus 5, Fibroblast, 96 h

**Q.** Which “anti-HCMV effects compared to GCV” value [1, 11] does the source give for CC(C)[C@H](N)C(=O)OCCOCn1cnc2c(=O)[nH]c(N)nc21 [VACV, valaciclovir] here?
**A.** less anti-HCMV effects compared to GCV

**Q.** What about the “inhibition of HCMV replication in each cell line” value ([1]; HFF, HFFF and SGHPL-4 cells, lower drug concentration, MOI 1, 96 h) of the same molecule?
**A.** inhibitor of HCMV in all cell lines

**Q.** And the “anti-HCMV activity in HFFF cells relative to other cell lines” value ([1]; MOI 1, 96 h)?
**A.** less than in HFF and SGHPL-4 cells

**Q.** What about the pEC50 ([1]; Human betaherpesvirus 5, HFF (adult fibroblast) cells, MOI 1, 96 h post-infection, virus yield) of the same molecule?
**A.** 5.47

**Q.** What about the “effect on cell viability and cell division (MTT)” value (“effect … (MTT)” below) [2] of the same molecule?
**A.** no obvious effect on cell viability

**Q.** What about the “effect … (MTT)” value [3] of the same molecule?
**A.** no obvious effect on cell viability

**Q.** What about the “effect … (MTT)” value [4] of the same molecule?
**A.** no obvious effect on cell viability

**Q.** What about the plasma concentration [5] of the same molecule?
**A.** 35 to 40 µM

**Q.** What about the “inhibition of HCMV foetal infection” value [6] of the same molecule?
**A.** notable inhibition of HCMV foetal infection

**Q.** What about the tolerability in patients [7] of the same molecule?
**A.** well tolerated by patients, without toxicity

**Q.** For Nc1nc(O)c2ncn(COC(CO)CO)c2n1 [GCV, ganciclovir], which “50% effective dose (EC50), anti-HSV activity” value [8] is on record?
**A.** well below micromolar concentrations

**Q.** What about the pEC50 [1, 12] of the same molecule?
**A.** 6.30

**Q.** What about the “difference between GCV and ACV inhibition of HCMV” value ([1]; found here, HFF cells) of the same molecule?
**A.** approximately fivefold difference

**Q.** What about the “difference between GCV and ACV anti-HCMV effects in vitro” value [9] of the same molecule?
**A.** approximately tenfold difference; also recorded: approximately tenfold greater

**Q.** And the “effect on uninfected cell viability in vitro” value [10]?
**A.** little or no effect

**Q.** With Nc1nc2c(ncn2COCCO)c(=O)[nH]1 [ACV, aciclovir] as the molecule, how does the “50% effective dose (EC50), anti-HSV activity” value [8] read?
**A.** well below micromolar concentrations

**Q.** What about the “anti-HCMV effects compared to GCV” value [1, 11] of the same molecule?
**A.** less anti-HCMV effects compared to GCV

**Q.** And the “anti-HCMV activity in HFFF cells relative to other cell lines” value ([1]; MOI 1, 96 h)?
**A.** less than in HFF and SGHPL-4 cells

**Q.** And the pEC50 [1, 12]?
**A.** 5.57

Source: paper PMC12617972, “Inhibition of human cytomegalovirus replication by valaciclovir” (The Journal of General Virology, 2025)
